{"source": "ChEMBL document CHEMBL1201862", "about": "“PubChem BioAssay data set” (2004)", "key": {"[1]": {"experiment": "anti-trypanosomal activity in BESM host cells – imaging, CA-I/72 strain, bovine embryo skeletal muscle, dry powder, dose response (AID 651885)", "assay_type": "functional, cell-based"}, "Major prion protein": {"biological_target": "Major prion protein (Homo sapiens, UniProt P04156)", "assay_type": "functional, cell-based"}, "cells [2]": {"experiment": "cells"}, "[3]": {"experiment": "Luminescence-based cell-based high throughput dose response assay to identify activators of the DAF-12 from the parasite S. stercoralis (ssDAF-12).", "assay_type": "functional"}, "[4]": {"biological_target": "T1, RNA-binding protein pos-1 (Caenorhabditis elegans, UniProt G5EF15)", "T1 sequence (G5EF15 whole entry)": "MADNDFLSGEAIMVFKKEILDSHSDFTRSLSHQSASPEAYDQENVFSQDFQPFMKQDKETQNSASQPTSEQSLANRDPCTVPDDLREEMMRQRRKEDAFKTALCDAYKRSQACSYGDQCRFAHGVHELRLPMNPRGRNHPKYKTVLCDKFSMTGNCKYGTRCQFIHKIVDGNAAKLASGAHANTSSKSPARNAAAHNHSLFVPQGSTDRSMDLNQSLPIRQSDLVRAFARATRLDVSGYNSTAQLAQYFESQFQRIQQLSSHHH", "experiment": "disruptors of C. elegans POS-1 RNA interaction – biochemical, fluorescence polarization, dose response (AID 1964);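 also: purified POS-1 fused to maltose binding protein made in E. coli; potency of compounds blocking POS-1 binding to fluorescent RNA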"}, "[5]": {"biological_target": "T2, Zinc finger protein mex-5 (Caenorhabditis elegans, UniProt Q9XUB2)", "T2 sequence (Q9XUB2 whole entry)": "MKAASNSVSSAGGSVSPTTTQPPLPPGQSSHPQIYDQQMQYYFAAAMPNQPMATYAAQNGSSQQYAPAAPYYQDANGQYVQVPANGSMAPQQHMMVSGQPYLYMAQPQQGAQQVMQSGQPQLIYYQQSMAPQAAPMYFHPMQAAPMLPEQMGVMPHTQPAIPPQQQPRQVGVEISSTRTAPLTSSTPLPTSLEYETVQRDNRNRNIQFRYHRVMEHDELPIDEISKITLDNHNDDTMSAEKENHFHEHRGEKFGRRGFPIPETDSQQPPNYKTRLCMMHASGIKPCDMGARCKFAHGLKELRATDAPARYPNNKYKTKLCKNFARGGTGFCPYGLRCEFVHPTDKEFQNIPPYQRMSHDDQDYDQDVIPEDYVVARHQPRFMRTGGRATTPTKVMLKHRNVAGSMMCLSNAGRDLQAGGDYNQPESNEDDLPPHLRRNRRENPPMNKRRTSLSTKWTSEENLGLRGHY", "experiment": "potency of MEX-5 RNA-binding blockers – biochemical, C. elegans, fluorescence polarization, dose response (AID 1960)"}, "[6]": {"biological_target": "T3, Oxysterols receptor LXR-beta (Homo sapiens, UniProt P55055)", "T3 sequence (P55055 whole entry)": "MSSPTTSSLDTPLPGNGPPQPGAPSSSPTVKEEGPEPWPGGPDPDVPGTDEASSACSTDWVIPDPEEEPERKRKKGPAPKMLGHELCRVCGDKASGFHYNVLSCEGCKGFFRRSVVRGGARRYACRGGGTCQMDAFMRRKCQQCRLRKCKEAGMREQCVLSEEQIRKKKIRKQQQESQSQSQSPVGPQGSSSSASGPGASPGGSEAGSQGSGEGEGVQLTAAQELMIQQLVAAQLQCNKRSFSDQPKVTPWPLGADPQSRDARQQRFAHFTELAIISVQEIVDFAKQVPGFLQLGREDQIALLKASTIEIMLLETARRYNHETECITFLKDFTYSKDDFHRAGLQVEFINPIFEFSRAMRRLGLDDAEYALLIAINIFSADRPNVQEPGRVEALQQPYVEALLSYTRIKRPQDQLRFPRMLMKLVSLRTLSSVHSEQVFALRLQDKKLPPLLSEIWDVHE", "experiment": "LXR agonists, Gal4 luciferase reporter, dose response, counter-screen for ssDAF-12 agonist project, cell-based, luminescence, HEK293, S. stercoralis campaign (AID 720737)", "assay_type": "functional", "conditions": "read-out: IC50 (the source's name)"}, "[7]": {"biological_target": "Heat shock protein HSP 90-alpha (Homo sapiens, UniProt P07900)", "experiment": "Luminescence-based dose response biochemical high throughput screening assay for inhibitors of the Heat Shock Protein 90 (HSP90). [Related pubchem assays: 1831 (Summary AID.), 1846 (Confirmation screen.), 1789 (Primary screen.)]"}, "[8]": {"experiment": "IGROV1 cell killing – plate reader, dry powder samples, PAX8 inhibitor project, dose response (AID 743043)", "assay_type": "functional, cell-based", "conditions": "IGROV-1"}, "[9]": {"experiment": "general cell-killing toxicity readout – plate reader, dry powder samples, cytotoxicity control for PAX8 inhibitor project, dose response (AID 743021)", "assay_type": "functional, cell-based"}, "[10]": {"experiment": "OVCAR8 cell viability loss – plate reader, dry powder samples, PAX8 project, dose response (AID 743197)", "assay_type": "functional, cell-based", "conditions": "OVCAR-8"}, "Paired box protein Pax-8": {"biological_target": "Paired box protein Pax-8 (Homo sapiens, UniProt Q06710)", "experiment": "PAX8 transcriptional activity inhibition in RMG-I – RMG-I cells, luciferase, cherry-pick, dose response (AID 687027);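 also: luciferase reporter driven by Pax8 target thyroperoxidase promoter measured by SteadyGlo luminescence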", "assay_type": "functional, cell-based"}, "fMet-Leu-Phe receptor": {"biological_target": "fMet-Leu-Phe receptor (Homo sapiens, UniProt P21462)", "experiment": "formyl peptide receptor binders – dose response (AID 519)", "assay_type": "functional"}, "Protein Tat": {"biological_target": "Protein Tat (Human immunodeficiency virus type 1 group M subtype B (isolate HXB2)(HIV-1), UniProt P04608)", "assay_type": "functional"}, "Genome polyprotein": {"biological_target": "Genome polyprotein (dengue virus type 2, UniProt P29990)", "experiment": "flavivirus cap methylation enzyme inhibition – biochemical, confirmation dose response, primary screen (AID 588689)", "assay_type": "functional"}, "cells [11]": {"experiment": "cells", "remark": "listed apart in the source"}, "[12]": {"biological_target": "T3, Oxysterols receptor LXR-beta", "assay_type": "functional, cell-based"}, "[13]": {"biological_target": "T4, DNA repair and recombination protein RAD54-like (Homo sapiens, UniProt Q92698)", "T4 sequence (Q92698 whole entry)": "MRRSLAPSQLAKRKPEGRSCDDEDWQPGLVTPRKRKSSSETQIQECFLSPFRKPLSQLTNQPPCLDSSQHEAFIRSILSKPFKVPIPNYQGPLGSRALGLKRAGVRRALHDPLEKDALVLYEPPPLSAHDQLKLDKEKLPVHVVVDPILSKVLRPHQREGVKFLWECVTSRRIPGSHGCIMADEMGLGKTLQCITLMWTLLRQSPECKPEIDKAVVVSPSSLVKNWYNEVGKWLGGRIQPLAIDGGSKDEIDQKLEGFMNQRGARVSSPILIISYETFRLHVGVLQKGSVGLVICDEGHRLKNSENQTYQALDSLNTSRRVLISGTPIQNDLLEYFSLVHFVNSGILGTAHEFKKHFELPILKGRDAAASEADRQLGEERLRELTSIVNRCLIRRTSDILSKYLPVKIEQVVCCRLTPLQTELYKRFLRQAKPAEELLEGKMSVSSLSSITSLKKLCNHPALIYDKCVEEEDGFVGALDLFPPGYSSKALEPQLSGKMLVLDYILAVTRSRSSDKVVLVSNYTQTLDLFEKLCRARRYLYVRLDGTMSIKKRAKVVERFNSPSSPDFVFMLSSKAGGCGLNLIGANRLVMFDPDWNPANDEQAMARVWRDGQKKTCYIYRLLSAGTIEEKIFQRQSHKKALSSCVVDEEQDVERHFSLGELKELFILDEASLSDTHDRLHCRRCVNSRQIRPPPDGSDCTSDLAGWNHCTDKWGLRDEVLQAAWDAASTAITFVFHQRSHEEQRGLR", "experiment": "RAD54 Holliday junction migration blockers – biochemical, fluorescence, cherry-picked samples, dose series, confirmation (AID 651657)", "assay_type": "functional"}, "[14]": {"biological_target": "DNA repair protein RAD52 homolog (Homo sapiens, UniProt P43351)", "assay_type": "functional, biochemical"}}, "note": "Calls of active or inactive are those of the source."}
{"smiles": "CC(C)N1C[C@H](C)[C@@H](CN(C)C(=O)OC(C)(C)C)Oc2c(NC(=O)c3cccnc3)cccc2C1=O", "values": [{"measurement": "IC50", "setting": "[1]", "value": "> 20 µM (inactive)"}]}
{"smiles": "CCc1nc(SCC(=O)OC(C)C)c2ccccc2n1", "values": [{"measurement": "IC50", "setting": "Major prion protein", "value": "2.38 µM (active)"}, {"measurement": "IC50", "setting": "cells [2]", "value": "> 138 µM (inactive)"}]}
{"smiles": "O=C(O)C(=O)/C(=C\\c1ccsc1)c1ccc2ccccc2n1", "values": [{"measurement": "IC50", "setting": "[3]", "value": "> 67.6 µM (inactive)"}, {"measurement": "EC50", "setting": "[4]", "value": "27.9 µM (active)"}, {"measurement": "EC50", "setting": "[5]", "value": "49 µM (active)"}, {"measurement": "EC50", "setting": "[6]", "value": "> 67.6 µM (inactive)"}]}
{"smiles": "Cc1c(-c2nc(-c3ccc(C(F)(F)F)cc3)no2)n(C)oc1=O", "values": [{"measurement": "IC50", "setting": "[7]", "value": "1.6 µM (active)"}]}
{"smiles": "COc1ccc(NC(=O)N2CC(=O)N3[C@@H](CO)[C@@H](c4ccc(/C=C/c5ccccc5)cc4)[C@@H]3C2)cc1", "values": [{"measurement": "AC50", "setting": "[8]", "value": "54.8 µM (active)"}, {"measurement": "AC50", "setting": "[9]", "value": "7.22 µM (active)"}, {"measurement": "AC50", "setting": "[10]", "value": "39.1 µM (active)"}, {"measurement": "AC50", "setting": "Paired box protein Pax-8", "value": "5.52 µM (active)"}]}
{"smiles": "COc1ccc(-c2nc(-c3ccc(Br)o3)no2)cc1OC", "values": [{"measurement": "Ki", "setting": "fMet-Leu-Phe receptor", "value": "> 66.7 µM (inactive)"}]}
{"smiles": "O=C(O)c1ccc(-n2nc(C(F)(F)F)c3c2-c2ccoc2CC3)cc1", "values": [{"measurement": "IC50", "setting": "Protein Tat", "value": "> 100 µM (active)"}, {"measurement": "IC50", "setting": "Genome polyprotein", "value": "89 µM (active)"}]}
{"smiles": "Cc1ccc(CNC2=Nc3ccccc3CS2)cc1", "values": [{"measurement": "EC50", "setting": "cells [11]", "value": "> 67.5 µM (inactive)"}, {"measurement": "EC50", "setting": "[12]", "value": "> 67.5 µM (inactive)"}]}
{"smiles": "CN(C)CCNC(=O)c1cccc(-c2cnc3c(NC=O)cc(-c4ccccc4F)cn23)c1", "values": [{"measurement": "AC50", "setting": "[13]", "value": "21.7 µM (active)"}, {"measurement": "AC50", "setting": "[14]", "value": "3.69 µM (active)"}]}
{"smiles": "Oc1cc(-c2ccccc2)nc(N2CCN(Cc3ccccc3)CC2)n1", "values": [{"measurement": "Ki", "setting": "fMet-Leu-Phe receptor", "value": "> 66.7 µM (inactive)"}]}
